Test results reported in US12258328B2, “6-membered heteroaryl-containing aminopyridine compounds as EGFR inhibitors” (YUHAN CORPORATION, priority 2021, dated 2025).
Read-outs that look alike come from different tables or passages of the source.

How the values were obtained:
EGFR del19/T790M/C797S = EGFR del19/T790M/C797S (Homo sapiens, UniProt P00533, C797S/DEL746-750/T790M); test: Biochemical EGFR kinase assay (Lance Ultra TR-FRET), triple mutant del19/T790M/C797S
Method in brief: (§1)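 Enzyme reactions lasted 1 hour at room temperature with test compounds between 0.003 and 10 μM, followed by 10 mM EDTA quench.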

EGFR wildtype = EGFR wildtype (Homo sapiens, UniProt P00533); test: Biochemical EGFR kinase assay (Lance Ultra TR-FRET), wildtype
Method in brief: as §1

EGFR L858R/C797S = EGFR L858R/C797S (Homo sapiens, UniProt P00533, C797S/L858R); test: Biochemical EGFR kinase assay (Lance Ultra TR-FRET), double mutant L858R/C797S
Method in brief: as §1

EGFR del19/C797S = EGFR del19/C797S (Homo sapiens, UniProt P00533, C797S/DEL746-750); test: Biochemical EGFR kinase assay (Lance Ultra TR-FRET), double mutant del19/C797S
Method in brief: as §1

EGFR L858R/T790M/C797S = EGFR L858R/T790M/C797S (Homo sapiens, UniProt P00533, C797S/L858R/T790M); test: Biochemical EGFR kinase assay (Lance Ultra TR-FRET), triple mutant L858R/T790M/C797S
Method in brief: as §1

[1] = ATP at Km, read-out: IC50 del19/T790M/C797S, Km ATP
[2] = ATP at Km, read-out: IC50 WT, Km ATP
[3] = ATP at Km, read-out: IC50 L858R/C797S, Km ATP
[4] = ATP at Km, read-out: IC50 del19/C797S, Km ATP
[5] = ATP at Km, read-out: IC50 L858R/T790M/C797S, Km ATP
[6] = IC50 del19/T790M/C797S, 100 μM ATP
[7] = IC50 L858R/T790M/C797S, 100 μM ATP

Chain of EGFR wildtype (P00533 25-1210): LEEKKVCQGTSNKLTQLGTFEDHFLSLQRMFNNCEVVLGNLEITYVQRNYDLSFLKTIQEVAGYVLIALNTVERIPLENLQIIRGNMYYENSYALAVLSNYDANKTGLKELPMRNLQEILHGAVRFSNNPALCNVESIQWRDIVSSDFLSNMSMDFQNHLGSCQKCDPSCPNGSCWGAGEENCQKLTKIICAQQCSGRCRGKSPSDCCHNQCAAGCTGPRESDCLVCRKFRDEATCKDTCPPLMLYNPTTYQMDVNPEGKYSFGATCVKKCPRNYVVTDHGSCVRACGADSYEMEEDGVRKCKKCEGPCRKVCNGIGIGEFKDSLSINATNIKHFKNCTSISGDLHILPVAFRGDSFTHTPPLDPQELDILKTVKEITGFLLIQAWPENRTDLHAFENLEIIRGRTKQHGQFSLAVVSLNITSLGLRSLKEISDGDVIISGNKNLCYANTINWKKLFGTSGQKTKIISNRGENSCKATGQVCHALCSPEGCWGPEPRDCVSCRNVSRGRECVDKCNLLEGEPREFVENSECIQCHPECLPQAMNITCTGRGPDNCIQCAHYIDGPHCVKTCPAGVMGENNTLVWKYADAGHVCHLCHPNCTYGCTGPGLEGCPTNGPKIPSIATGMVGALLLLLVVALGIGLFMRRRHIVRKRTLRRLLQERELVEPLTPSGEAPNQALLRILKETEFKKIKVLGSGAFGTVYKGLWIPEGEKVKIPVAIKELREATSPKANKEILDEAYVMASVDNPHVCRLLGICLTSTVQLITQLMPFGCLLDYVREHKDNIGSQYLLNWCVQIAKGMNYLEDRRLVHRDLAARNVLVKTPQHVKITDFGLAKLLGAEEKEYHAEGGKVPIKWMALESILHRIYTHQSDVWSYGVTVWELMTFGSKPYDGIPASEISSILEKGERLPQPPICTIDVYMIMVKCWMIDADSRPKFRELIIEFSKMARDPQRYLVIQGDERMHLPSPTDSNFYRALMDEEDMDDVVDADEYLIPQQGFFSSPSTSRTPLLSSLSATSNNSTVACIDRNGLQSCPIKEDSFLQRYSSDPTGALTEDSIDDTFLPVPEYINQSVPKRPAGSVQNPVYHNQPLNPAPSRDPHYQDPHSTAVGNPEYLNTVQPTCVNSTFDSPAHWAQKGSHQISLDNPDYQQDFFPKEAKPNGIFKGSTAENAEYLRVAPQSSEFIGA
Chain of EGFR del19/T790M/C797S (P00533 with tags, fused parts or gaps DEL746-750/T790M/C797S): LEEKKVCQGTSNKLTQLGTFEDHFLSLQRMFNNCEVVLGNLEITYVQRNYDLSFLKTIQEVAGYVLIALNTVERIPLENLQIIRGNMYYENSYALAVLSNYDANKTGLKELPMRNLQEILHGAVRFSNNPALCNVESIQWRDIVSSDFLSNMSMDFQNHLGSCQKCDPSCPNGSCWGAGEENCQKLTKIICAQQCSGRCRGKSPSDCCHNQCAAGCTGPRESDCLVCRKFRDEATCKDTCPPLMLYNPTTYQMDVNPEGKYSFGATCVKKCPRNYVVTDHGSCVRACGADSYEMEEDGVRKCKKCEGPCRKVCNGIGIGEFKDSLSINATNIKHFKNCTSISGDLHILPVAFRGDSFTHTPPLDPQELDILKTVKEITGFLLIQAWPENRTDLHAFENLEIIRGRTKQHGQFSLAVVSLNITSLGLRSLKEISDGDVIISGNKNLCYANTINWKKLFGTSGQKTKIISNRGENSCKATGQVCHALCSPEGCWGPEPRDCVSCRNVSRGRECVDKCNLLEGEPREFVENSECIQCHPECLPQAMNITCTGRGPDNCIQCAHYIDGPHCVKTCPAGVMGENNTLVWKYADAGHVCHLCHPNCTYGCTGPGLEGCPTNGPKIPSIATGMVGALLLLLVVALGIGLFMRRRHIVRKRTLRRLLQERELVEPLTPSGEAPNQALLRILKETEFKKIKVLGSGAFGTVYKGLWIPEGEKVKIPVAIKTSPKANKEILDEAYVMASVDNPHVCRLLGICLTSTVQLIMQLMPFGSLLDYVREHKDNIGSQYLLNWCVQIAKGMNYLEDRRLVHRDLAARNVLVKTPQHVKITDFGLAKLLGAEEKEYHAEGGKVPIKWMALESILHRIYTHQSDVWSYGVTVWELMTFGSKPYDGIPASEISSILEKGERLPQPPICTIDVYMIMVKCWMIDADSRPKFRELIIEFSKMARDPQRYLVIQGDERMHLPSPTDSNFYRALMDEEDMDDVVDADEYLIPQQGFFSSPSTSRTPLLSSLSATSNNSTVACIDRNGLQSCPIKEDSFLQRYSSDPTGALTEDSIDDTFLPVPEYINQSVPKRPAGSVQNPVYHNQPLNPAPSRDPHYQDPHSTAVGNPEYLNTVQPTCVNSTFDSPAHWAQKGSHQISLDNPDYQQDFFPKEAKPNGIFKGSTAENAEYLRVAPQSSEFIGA
Chain of EGFR del19/C797S (P00533 with tags, fused parts or gaps DEL746-750/C797S): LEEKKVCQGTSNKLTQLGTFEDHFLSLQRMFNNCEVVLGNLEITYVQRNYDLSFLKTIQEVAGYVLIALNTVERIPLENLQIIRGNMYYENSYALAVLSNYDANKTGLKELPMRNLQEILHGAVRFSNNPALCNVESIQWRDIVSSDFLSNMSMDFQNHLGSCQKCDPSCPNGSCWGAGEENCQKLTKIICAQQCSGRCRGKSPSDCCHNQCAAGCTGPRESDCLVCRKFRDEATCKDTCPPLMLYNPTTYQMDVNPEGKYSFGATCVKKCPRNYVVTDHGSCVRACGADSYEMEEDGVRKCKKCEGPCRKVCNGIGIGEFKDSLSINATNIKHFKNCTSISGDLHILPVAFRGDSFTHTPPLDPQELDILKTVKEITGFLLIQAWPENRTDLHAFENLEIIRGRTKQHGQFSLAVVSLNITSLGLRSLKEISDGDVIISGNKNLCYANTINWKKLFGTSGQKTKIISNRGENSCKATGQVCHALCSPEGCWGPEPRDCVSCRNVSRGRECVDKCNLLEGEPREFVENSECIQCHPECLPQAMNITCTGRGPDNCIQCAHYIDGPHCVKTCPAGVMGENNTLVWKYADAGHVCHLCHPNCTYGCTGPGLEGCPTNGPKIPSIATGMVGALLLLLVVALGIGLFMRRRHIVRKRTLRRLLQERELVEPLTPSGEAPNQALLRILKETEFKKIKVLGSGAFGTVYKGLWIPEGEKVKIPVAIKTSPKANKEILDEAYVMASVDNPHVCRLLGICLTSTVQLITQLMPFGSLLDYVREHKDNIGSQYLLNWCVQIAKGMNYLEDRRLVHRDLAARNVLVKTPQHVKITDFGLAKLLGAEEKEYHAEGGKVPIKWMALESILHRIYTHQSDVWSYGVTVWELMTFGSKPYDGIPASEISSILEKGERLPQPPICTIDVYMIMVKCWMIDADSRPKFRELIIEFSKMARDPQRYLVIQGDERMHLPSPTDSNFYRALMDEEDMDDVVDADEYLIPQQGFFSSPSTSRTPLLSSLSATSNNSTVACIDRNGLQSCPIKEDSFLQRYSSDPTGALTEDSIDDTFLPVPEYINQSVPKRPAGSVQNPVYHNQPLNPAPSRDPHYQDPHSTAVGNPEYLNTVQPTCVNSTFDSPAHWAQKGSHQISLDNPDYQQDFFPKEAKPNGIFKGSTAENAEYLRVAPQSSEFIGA
Chain of EGFR L858R/T790M/C797S (P00533 25-1210 T790M/C797S/L858R): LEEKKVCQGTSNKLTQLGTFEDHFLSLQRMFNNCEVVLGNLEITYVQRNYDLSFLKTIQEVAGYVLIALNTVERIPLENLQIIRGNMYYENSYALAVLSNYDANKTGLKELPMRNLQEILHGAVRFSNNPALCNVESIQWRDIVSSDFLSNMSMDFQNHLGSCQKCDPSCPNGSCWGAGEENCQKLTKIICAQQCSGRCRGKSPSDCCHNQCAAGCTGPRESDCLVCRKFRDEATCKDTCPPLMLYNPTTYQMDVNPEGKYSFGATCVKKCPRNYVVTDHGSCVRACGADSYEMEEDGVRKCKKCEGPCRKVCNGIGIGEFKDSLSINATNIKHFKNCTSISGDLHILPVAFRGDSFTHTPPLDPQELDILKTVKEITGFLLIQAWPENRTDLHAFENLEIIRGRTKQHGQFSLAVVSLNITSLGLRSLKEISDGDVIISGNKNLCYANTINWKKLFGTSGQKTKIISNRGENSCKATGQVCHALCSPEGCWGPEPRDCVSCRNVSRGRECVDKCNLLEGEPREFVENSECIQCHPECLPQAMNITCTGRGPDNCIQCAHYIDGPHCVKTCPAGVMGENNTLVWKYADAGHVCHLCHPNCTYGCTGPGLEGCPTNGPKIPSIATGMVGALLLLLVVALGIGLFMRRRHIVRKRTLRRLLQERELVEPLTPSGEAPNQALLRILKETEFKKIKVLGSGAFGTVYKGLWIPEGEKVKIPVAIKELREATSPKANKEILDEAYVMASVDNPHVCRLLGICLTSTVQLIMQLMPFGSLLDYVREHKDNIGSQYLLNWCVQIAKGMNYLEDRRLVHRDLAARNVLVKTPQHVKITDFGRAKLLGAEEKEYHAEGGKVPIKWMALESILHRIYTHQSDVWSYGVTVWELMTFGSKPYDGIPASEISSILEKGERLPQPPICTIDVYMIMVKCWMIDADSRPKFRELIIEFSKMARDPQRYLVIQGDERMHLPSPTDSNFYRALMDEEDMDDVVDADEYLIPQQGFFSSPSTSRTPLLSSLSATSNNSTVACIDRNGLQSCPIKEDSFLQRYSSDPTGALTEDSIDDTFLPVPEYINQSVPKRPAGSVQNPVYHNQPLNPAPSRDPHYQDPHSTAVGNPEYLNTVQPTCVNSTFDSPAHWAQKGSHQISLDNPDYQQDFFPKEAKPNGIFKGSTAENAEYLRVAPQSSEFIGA

Row | Structure (SMILES) | IC50 (EGFR del19/T790M/C797S; [1]) [nM] | IC50 (EGFR wildtype; [2]) [nM] | IC50 (EGFR L858R/C797S; [3]) [nM] | IC50 (EGFR del19/C797S; [4]) [nM] | IC50 (EGFR L858R/T790M/C797S; [5]) [nM] | IC50 (EGFR del19/T790M/C797S; [6]) [nM] | IC50 (EGFR wildtype; IC50 WT, 100 μM ATP) [nM] | IC50 (EGFR L858R/C797S; IC50 L858R/C797S, 100 μM ATP) [nM] | IC50 (EGFR del19/C797S; IC50 del19/C797S, 100 μM ATP) [nM] | IC50 (EGFR L858R/T790M/C797S; [7]) [nM]
1 | O=S(=O)(C1CC1)n1cc(-c2nccc(Nc3cc(NC4CCC(F)CC4)c(-c4ccc(N5CCC(F)(F)CC5)nn4)cn3)n2)cn1 (stereo not drawn) [Example 267, N^2-(2-(1-(Cyclopropylsulfonyl)-1H-pyrazol-4-yl)pyrimidin-4-yl)-5-(6-(4,4-difluoropiperidin-1-yl)pyridazin-3-yl)-N^4-(4-fluorocyclohexyl)pyridine-2,4-diamine] | 15.4 | 2910 | 357 | 82.1 | 21.7 | – | – | – | – | –
2 | O=S(=O)(C1CC1)n1cc(-c2nccc(Nc3cc(NC4CCC(F)(F)CC4)c(-c4ccc(N5CCC(F)(F)CC5)nn4)cn3)n2)cn1 [Example 268, N^2-(2-(1-(Cyclopropylsulfonyl)-1H-pyrazol-4-yl)pyrimidin-4-yl)-N^4-(4,4-difluorocyclohexyl)-5-(6-(4,4-difluoropiperidin-1-yl)pyridazin-3-yl)pyridine-2,4-diamine] | 28.9 | 4770 | 1220 | 762 | 22.4 | – | – | – | – | –
3 | CN1CCC(Oc2ccc(-c3cnc(Nc4ccnc(-c5cnn(S(=O)(=O)C6CC6)c5)n4)cc3N[C@H]3CC[C@@](C)(O)CC3)nn2)CC1 [Example 269, (1s,4s)-4-((2-((2-(1-(Cyclopropylsulfonyl)-1H-pyrazol-4-yl)pyrimidin-4-yl)amino)-5-(6-((1-methylpiperidin-4-yl)oxy)pyridazin-3-yl)pyridin-4-yl)amino)-1-methylcyclohexan-1-ol] | 0.1 | 2.6 | 0.1 | 0.4 | 0.1 | – | – | – | – | –
4 | CN1CCC(Oc2ccc(-c3cnc(Nc4ccnc(-c5cnn(S(=O)(=O)C6CC6)c5)n4)cc3N[C@H]3CC[C@@H](F)CC3)nn2)CC1 [Example 270, N^2-(2-(1-(Cyclopropylsulfonyl)-1H-pyrazol-4-yl)pyrimidin-4-yl)-N^4-((1s,4s)-4-fluorocyclohexyl)-5-(6-((1-methylpiperidin-4-yl)oxy)pyridazin-3-yl)pyridine-2,4-diamine] | 0.3 | 36 | 1.1 | 3.2 | 0.1 | – | – | – | – | –
5 | C[C@]1(O)CC[C@@H](Nc2cc(Nc3ccnc(-c4cnn(S(=O)(=O)C5CC5)c4)n3)ncc2-c2cccc(F)n2)CC1 [Example 271, (1s,4s)-4-((6′-((2-(1-(Cyclopropylsulfonyl)-1H-pyrazol-4-yl)pyrimidin-4-yl)amino)-6-fluoro-[2,3′-bipyridin]-4′-yl)amino)-1-methylcyclohexan-1-ol] | 0.5 | 3.8 | 0.6 | 0.9 | 0.2 | 0.6 | > 10000 | 7.9 | 0.7 | 0.4
6 | O=S(=O)(C1CC1)n1cc(-c2nccc(Nc3cc(N[C@H]4CC[C@@H](CO)CC4)c(-c4cccc(F)n4)cn3)n2)cn1 [Example 272, ((1s,4s)-4-((6′-((2-(1-(Cyclopropylsulfonyl)-1H-pyrazol-4-yl)pyrimidin-4-yl)amino)-6-fluoro-[2,3′-bipyridin]-4′-yl)amino)cyclohexyl)methanol] | 0.3 | 1.4 | 1 | 0.6 | 0.1 | 0.5 | 495 | 2.5 | 0.7 | 0.3
7 | O=S(=O)(C1CC1)n1cc(-c2nccc(Nc3cc(N[C@H]4CC[C@@H](NCCF)CC4)c(-c4cccc(F)n4)cn3)n2)cn1 [Example 273, N^6′-(2-(1-(Cyclopropylsulfonyl)-1H-pyrazol-4-yl)pyrimidin-4-yl)-6-fluoro-N^4′-((1s,4s)-4-((2-fluoroethyl)amino)cyclohexyl)-[2,3′-bipyridine]-4′,6′-diamine] | – | – | – | – | – | 0.2 | 2230 | 8.6 | 1 | 0.3
8 | CN(C)C[C@H]1CC[C@@H](Nc2cc(Nc3ccnc(-c4cnn(S(=O)(=O)C5CC5)c4)n3)ncc2-c2cccc(F)n2)CC1 [Example 274, N^6′-(2-(1-(Cyclopropylsulfonyl)-1H-pyrazol-4-yl)pyrimidin-4-yl)-N^4′-((1s,4s)-4-((dimethylamino)methyl)cyclohexyl)-6-fluoro-[2,3′-bipyridine]-4′,6′-diamine] | 0.02 | 0.5 | 0.1 | 0.1 | 0.03 | 0.1 | 108 | 0.4 | 0.1 | 0.1
9 | O=S(=O)(C1CC1)n1cc(-c2nccc(Nc3cc(N[C@H]4CC[C@@H](NCC(F)F)CC4)c(-c4cccc(F)n4)cn3)n2)cn1 [Example 275, N^6′-(2-(1-(Cyclopropylsulfonyl)-1H-pyrazol-4-yl)pyrimidin-4-yl)-N^4′-((1s,4s)-4-((2,2-difluoroethyl)amino)cyclohexyl)-6-fluoro-[2,3′-bipyridine]-4′,6′-diamine] | 0.9 | 18.5 | 4.1 | 2.5 | 0.7 | 1.1 | > 10000 | 11.4 | 2.6 | 1.2
10 | CN(C)CCNc1ccnc(-c2cnc(Nc3ccnc(-c4cnn(S(=O)(=O)C5CC5)c4)n3)cc2N[C@H]2CC[C@@](C)(O)CC2)c1 [Example 276, (1s,4s)-4-((6′-((2-(1-(Cyclopropylsulfonyl)-1H-pyrazol-4-yl)pyrimidin-4-yl)amino)-4-((2-(dimethylamino)ethyl)amino)-[2,3′-bipyridin]-4′-yl)amino)-1-methylcyclohexan-1-ol] | 0.8 | 2.9 | 0.7 | 0.3 | 0.2 | 1.1 | 2530 | 2.3 | 0.7 | 0.5
11 | C[C@]1(O)CC[C@@H](Nc2cc(Nc3ccnc(-c4cnn(S(=O)(=O)C5CC5)c4)n3)ncc2-c2cc(NCCC(F)(F)F)ccn2)CC1 [Example 277, (1s,4s)-4-((6′-((2-(1-(Cyclopropylsulfonyl)-1H-pyrazol-4-yl)pyrimidin-4-yl)amino)-4-((3,3,3-trifluoropropyl)amino)-[2,3′-bipyridin]-4′-yl)amino)-1-methylcyclohexan-1-ol] | 4.4 | 9.8 | 2.2 | 0.9 | 1.6 | 4.7 | > 10000 | 11.2 | 3.9 | –
12 | C[C@]1(O)CC[C@@H](Nc2cc(Nc3ccnc(-c4cnn(S(=O)(=O)C5CC5)c4)n3)ncc2-c2cc(NCCN3CCOCC3)ccn2)CC1 [Example 279, (1s,4s)-4-((6′-((2-(1-(Cyclopropylsulfonyl)-1H-pyrazol-4-yl)pyrimidin-4-yl)amino)-4 ((2-morpholinoethyl)amino)-[2,3′-bipyridin]-4′-yl)amino)-1-methylcyclohexan-1-ol] | 2 | 11.9 | 0.9 | 1.7 | 0.6 | 2.9 | > 10000 | 6.6 | 5 | –
